# Data as given in publication PMC10349193 (CPT: Pharmacometrics & Systems Pharmacology, 2023).
# Like-named read-outs stand apart in the source and are kept apart here.
# Experiments:
# [1] = model input; ref SimCYP library version 19; cited from earlier work
# [2] = parameters: method as in SimCYP library version 19; settings: ref SimCYP library version 19; cited from earlier work
# CYP3A4 [3] = test system: CYP3A4; parameters: method as in SimCYP library version 19; settings: ref SimCYP library version 19; cited from earlier work
# [4] = ref SimCYP library version 19, cited from earlier work
# Caco-2 = settings: ref SimCYP library version 19, cited from earlier work
# [5] = model input; ref SimCYP library version 19; cited from earlier work; remark: listed apart in the source
# CYP2C19 = settings: read-out: CYP2C19 Ki; competitive inhibition; ref SimCYP library version 19; cited from earlier work
# CYP1A2 [6] = settings: read-out: CYP1A2 Ki; competitive inhibition; ref SimCYP library version 19; cited from earlier work
# CYP3A4 [7] = settings: cited from earlier work
# CYP2D6 = settings: read-out: CYP2D6 Ki; competitive inhibition; ref SimCYP library version 19; cited from earlier work
# CYP2C9 = settings: read-out: CYP2C9 Ki; competitive inhibition; ref SimCYP library version 19; cited from earlier work
# P-gp [8] = test system: T1, P-gp; assay: P-gp substrate assessment in Caco-2 monolayers with verapamil; type: in vitro ADME; settings: human, Caco-2, with verapamil (concentration not stated)
# T1 construct: endogenous in cells; host or cells: Caco-2
# P-gp [9] = target: T2, P-gp (Homo sapiens, UniProt P08183); assay: as above; type: in vitro ADME; settings: Caco-2, with verapamil (concentration not stated), read-out: Efflux ratio P app,BL→AP/AP→BL, with inhibitor
# T2 construct: endogenous in cells; host or cells: Caco-2
# Caco‐2 monolayers = assay: Apparent permeability in Caco-2 monolayers; type: in vitro ADME; settings: Caco‐2, 10 μM, 2 h
# [10] = Apparent permeability in Caco-2 monolayers; type: in vitro ADME; settings: human
# MDCK II = settings: fluvoxamine file with reference compounds; ref SimCYP library version 19; cited from earlier work
# CYP1A2 [11] = test system: CYP1A2; parameters: method as in SimCYP library version 19; settings: ref SimCYP library version 19; cited from earlier work
# CYP2C8 [12] = test system: CYP2C8; parameters: method as in SimCYP library version 19; settings: ref SimCYP library version 19; cited from earlier work
# CYP2B6 = test system: CYP2B6; parameters: method as in SimCYP library version 19; settings: ref SimCYP library version 19, cited from earlier work
# [13] = model input; ref SimCYP library version 19; cited from earlier work; remark: listed apart in the source
# CYP2C8 [14] = test system: CYP2C8; parameters: method as in SimCYP library version 19; settings: ref SimCYP library version 19, cited from earlier work
# [15] = pH 7.4: pH 7.4, Passive&Active, erythromycin file with reference compounds
# T2 sequence (P08183 whole entry): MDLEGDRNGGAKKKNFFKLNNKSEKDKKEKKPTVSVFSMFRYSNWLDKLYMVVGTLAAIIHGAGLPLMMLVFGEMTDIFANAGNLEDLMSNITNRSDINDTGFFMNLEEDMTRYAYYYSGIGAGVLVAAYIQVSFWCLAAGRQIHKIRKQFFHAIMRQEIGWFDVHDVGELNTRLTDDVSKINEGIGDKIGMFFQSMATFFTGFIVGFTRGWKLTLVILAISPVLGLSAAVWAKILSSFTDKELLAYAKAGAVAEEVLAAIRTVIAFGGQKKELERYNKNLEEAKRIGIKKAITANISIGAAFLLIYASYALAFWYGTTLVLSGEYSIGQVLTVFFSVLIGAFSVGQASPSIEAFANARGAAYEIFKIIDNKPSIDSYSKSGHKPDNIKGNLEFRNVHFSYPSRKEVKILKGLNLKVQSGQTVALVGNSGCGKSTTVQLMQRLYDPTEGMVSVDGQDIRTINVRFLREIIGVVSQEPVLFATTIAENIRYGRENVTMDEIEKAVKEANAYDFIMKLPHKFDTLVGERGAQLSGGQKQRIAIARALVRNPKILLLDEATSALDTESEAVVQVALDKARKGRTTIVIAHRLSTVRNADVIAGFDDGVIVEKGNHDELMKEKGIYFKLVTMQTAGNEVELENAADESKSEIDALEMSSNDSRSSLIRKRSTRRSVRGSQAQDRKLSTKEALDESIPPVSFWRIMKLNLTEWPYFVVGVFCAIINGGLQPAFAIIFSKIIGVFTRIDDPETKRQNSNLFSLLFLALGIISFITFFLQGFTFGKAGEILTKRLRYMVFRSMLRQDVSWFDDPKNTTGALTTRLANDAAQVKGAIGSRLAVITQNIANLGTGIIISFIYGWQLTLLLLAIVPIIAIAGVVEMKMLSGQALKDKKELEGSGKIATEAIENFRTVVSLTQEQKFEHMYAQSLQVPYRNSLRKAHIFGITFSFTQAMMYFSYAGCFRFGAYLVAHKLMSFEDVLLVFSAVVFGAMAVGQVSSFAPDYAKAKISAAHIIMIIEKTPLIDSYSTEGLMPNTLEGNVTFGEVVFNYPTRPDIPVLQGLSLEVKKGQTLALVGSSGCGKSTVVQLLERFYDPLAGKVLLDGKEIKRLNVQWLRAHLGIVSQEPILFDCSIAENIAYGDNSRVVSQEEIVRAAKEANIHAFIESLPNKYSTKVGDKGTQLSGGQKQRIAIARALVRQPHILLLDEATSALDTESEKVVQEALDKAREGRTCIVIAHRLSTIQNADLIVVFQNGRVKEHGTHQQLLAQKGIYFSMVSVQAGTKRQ
compound,measurement,setting,value
CC[C@H]1OC(=O)[C@H](C)[C@@H](O[C@H]2C[C@@](C)(OC)[C@@H](O)[C@H](C)O2)[C@H](C)[C@@H](O[C@@H]2O[C@H](C)C[C@H](N(C)C)[C@H]2O)[C@](C)(O)C[C@@H](C)C(=O)[C@H](C)[C@@H](O)[C@]1(C)O [Erythromycin],Fraction unbound in plasma,[1],0.31
same,CLR,[2],3.13 L/h
same,CYP3A4 Kapp,CYP3A4 [3],23.2 µM
same,Vss,[4]; minimal PBPK model,0.75/30 L/kg
same,Volume [Vsac],[4]; single adjusting compartment,1e-05 L/kg
same,kin,[4]; single adjusting compartment,0 h⁻¹
same,kout,[4]; single adjusting compartment,0 h⁻¹
same,Caco-2 Papp,Caco-2; [15],1.7 10^-6 cm/s
COCCCC/C(=N\OCCN)c1ccc(C(F)(F)F)cc1 [Fluvoxamine],pKa 1,[5],8.7
same,Ki,CYP2C19,6 nM
same,Ki,CYP1A2 [6],2 nM
same,Ki,CYP2D6,189 nM
same,Ki,CYP2C9,126 nM
CC(C)NCC(O)COc1cccc2ccccc12 (centres unmarked) [Propranolol],"Papp A→B at 2 h, 10 μM","P-gp [8]; read-out: P app,AP→BL, with inhibitor",57.4 ×10⁻⁶ cm/s
same,"Papp B→A at 2 h, 10 μM","P-gp [8]; read-out: P app,BL→AP, with inhibitor",21.9 ×10⁻⁶ cm/s
same,"efflux ratio at 2 h, 10 μM",P-gp [9],0.382
same,"P app,AP→BL, without inhibitor",Caco‐2 monolayers,29.4 10^−6 cm/s
same,Papp at 2 h,"[10]; Caco-2, Apical pH : Basolateral pH 7.4 : 7.4, source Measured, read-out: Caco-2 permeability (model input)",29.4 ×10⁻⁶ cm/s
same,"Papp B→A at 2 h, 10 μM","[10]; Caco‐2, 10 μM, 2 h, read-out: P app,BL→AP, without inhibitor",23.1 ×10⁻⁶ cm/s
same,"efflux ratio at 2 h, 10 μM","[10]; Caco‐2, 10 μM, read-out: Efflux ratio P app,BL→AP/AP→BL, without inhibitor",0.785
same,MDCK II Papp,MDCK II,40.3 10^-6 cm/s
same,Reference compound Papp,"Caco-2; Caco-2 pH 6.5: pH 7.4, references of fluconazole file, unit not given",27.5
same,Caco-2 Papp,"Caco-2; pH 6.5: pH 7.4, Passive, rifampicin file with reference compound",21.15 10^-6 cm/s
same,Caco-2 Papp,Caco-2; [15],147 10^-6 cm/s
CO[C@H]1/C=C/O[C@@]2(C)Oc3c(C)c(O)c4c(O)c(c(/C=N/N5CCN(C)CC5)c(O)c4c3C2=O)NC(=O)/C(C)=C\C=C\[C@H](C)[C@H](O)[C@@H](C)[C@@H](O)[C@@H](C)[C@H](OC(C)=O)[C@@H]1C [Rifampicin],Fraction unbound in plasma,[1],0.116
same,Log P,[5],4.01
same,pKa 1,[5],1.7
same,pKa 2,[5],7.9
same,CLR,[2],1.26 L/h
same,fuinc (CYP1A2 induction),CYP1A2 [11],1
same,fumic (CYP2C8 inhibition),CYP2C8 [12],1
same,EC50,"CYP2B6; induction, read-out: CYP2B6 IndC50",70 nM
same,fuinc (CYP2B6 induction),CYP2B6,1
same,kin,[4]; single adjusting compartment,0 h⁻¹
same,kout,[4]; single adjusting compartment,0 h⁻¹
same,Lag time,[13],0/30 h
same,QGut,[13],9.42/30
same,fuGut,[13],0.14
same,EC50,"CYP2C8 [14]; induction, read-out: CYP2C8 IndC50",300 nM
same,fuinc (CYP2C8 induction),CYP2C8 [14],1
